In patent US20220362223A1, “ORAL FORMULATION OF X842” (Cinclus Pharma Holding AB, priority 2019, published 2022):
Values after ≈ are worked out from the molar mass of the structure shown.

Legend:
clinical = test: clinical; set-up: species or system human; settings: in vivo
Procedure: (§1) X842 is a prodrug of linaprazan, which was disclosed in WO 99/55706 and previously studied in Phase I and II studies. […] A clinical Phase I study has shown that administration of a single dose of X842 can maintain the intragastric acidity above pH 4 for 24 hours. X842 is therefore tailored for patients with severe erosive gastroesophageal reflux disease (eGERD).
(§2) It is estimated that this requires a minimal plasma concentration (Cmin) of linaprazan of at least about 240 nmol/L after 22 hours. At such doses, a once daily administration of the formulation would be sufficient. Therefore, in another embodiment, the invention relates to a formulation as disclosed herein, wherein the formulation provides a Cmin of linaprazan in a human of at least about 240 nmol/L after 22 hours following administration of the oral formulation to said human. In a preferred embodiment, the invention relates to a formulation as disclosed herein, wherein a unit dose of the formulation provides a Cmin of linaprazan in a human of at least about 240 nmol/L after 22 hours following administration of the oral formulation to said human.

gastric acid production [1] = settings: Phase I and II studies; cited from earlier work
gastric acid production [2] = test: Clinical Phase I study of X842: intragastric pH / gastric acid control; assay type: in vivo, human
Procedure: as §1, §2

[3] = Solubility of X842 in water; assay type: physicochemical
From the text: The solubility of X842 is very low. […] This low solubility is problematic for solid oral formulations, and especially for solid immediate release formulations where the active ingredient should dissolve in only a short time period.

Row | concentration at 22 h (clinical; human) [nM] | half-life in the body (clinical; human) | metabolism after absorption into the blood stream (clinical) | plasma concentration of X842 (clinical) | solubility in water ([3]; pH 6.8) | solubility ([3]; water, simulated gastric fluid, pH 1.0) [µg/mL] | SMILES | duration of acid inhibition (gastric acid production [1]) | elimination from the body (gastric acid production [1]) | onset of action / effect at first dose (gastric acid production [1]) | tolerability (gastric acid production [1]) | control of gastric acid production (gastric acid production [2]; compared to linaprazan) | time intragastric acidity is maintained above pH 4 (gastric acid production [2]; single dose, clinical Phase I) [hours]
1 | ≥ 240 |  |  |  |  |  | Cc1cccc(C)c1CNc1cc(C(=O)NCCO)cn2c(C)c(C)nc12 [linaprazan] | too short duration of acid inhibition | quickly eliminated from the body | fast onset of action and full effect at first dose | well tolerated |  | 
2 |  | longer half-life | quickly metabolized into linaprazan | only very low and difficult to determine | practically insoluble | ~113 (≈ 235 µM) | Cc1cccc(C)c1CNc1cc(C(=O)NCCOC(=O)CCCC(=O)O)cn2c(C)c(C)nc12 [Example X842, 5-{2[({8-[(2,6-dimethylbenzyl)amino]-2,3-dimethylimidazo[1,2-a]pyridine-6-yl}carbonyl)-amino]ethoxy}-5-oxopentanoic acid] |  |  |  |  | total control of the gastric acid production for a longer time | 24
